# Legend:
# [1] = tested on: hamsters with cerebellar ataxia; assay: Slant tolerance test in hamsters with cerebellar ataxia; format: in vivo, hamster; conditions: for endurable-slant-slope-angle (degree): cerebellar ataxia hamsters
# Description: (§1) Since NK-4 was confirmed to have a neurodegenerative inhibitory action in Experiment 1, hamsters with cerebellar ataxia (cerebellar ataxia is called “cerebellar A” and hamsters with cerebellar ataxia are called “hamsters with cerebellar A”, hereinafter) as a suitable model for human neurodegenerative diseases (e.g., spinal cerebellar degeneration) were subjected to examine the influence of NK-4 administration on their behaviors and brain tissues. Twenty-five hamsters with natural mutation (Nna1 inhibition), which are known to lose Purkinje's cells after three-weeks of age and then induce a spontaneous onset of kinetic motor ataxia after seven-weeks of age (see Akita K. et al., “J. Neurogenetics”, Vol. 21, pp. 19-29, 2007), had been fed at Hayashibara Biochemical Laboratories., Inc., Okayama, Japan, were randomly allocated to the test groups 1 to 5, five heads in each group, as shown in Table 2. Prior to the onset of cerebellar A (at three-weeks of age), PBS was started to administer to the hamsters in the test group 1 at a dose of 10 ml/kg/day. Prior to the onset of cerebellar A (at three-weeks of age), NK-4 was started to be administered to the hamsters in the test groups 2 to 4 at a daily dose of 20 μg/kg, 100 μg/kg or 500 μg/kg. “IGF-1, human, a product name of insulin-like growth factor, commercialized by Assaypro LLC, MO, USA. These administered ingredients were intraperitoneally administered daily to hamsters once a day up to 10-weeks of age. The degree of symptom of cerebellar A and the improvement effect on the symptom by NK-4 were evaluated with an index of improvement in motor coordination of hamsters by conducting once a week the later described rotarod test and the slant tolerance test. At the age of 10-weeks, the hamsters were subjected to counting the falling down frequency and extracted their brains, which were then histologically evaluated. In parallel, the concentration of glutamic acid in the bloods and cerebrospinal fluids (CSF) of the hamsters was assayed. As a test group 6, five normal hamsters, with the same age as the hamsters with cerebellar A used in the test groups 1 to 5, were provided and tested similarly as the hamsters with cerebellar A in such a manner of intraperitoneally administering PBS to them at a dose of 10 ml/kg/day once a day up to 10-weeks of age.
# Hamsters were placed on a slope-angle-variable-board while keeping their heads upward, followed by determining the angle for allowing the hamsters to keep staying thereupon for five seconds for use as an endurable-slant-slope-angle test (see Rivlin et al., “J. Neurosurg.”, Vol. 47, pp. 577-581, […]). The initial slope angle was set to 25 degrees and increased by 5 degrees step by step. When a tested hamster in a static condition fell down within five seconds, the slope angle was decreased by one degree step by step, followed by judging the angle that allows the hamster to keep static staying for five seconds, measuring the tolerable slant-slope-angle, and averaging the data for five heads in each group.
# (§2) Similarly as in Experiment 2, 130 hamsters with cerebellar ataxia, born within the same week and 3-weeks of age, were randomly divided into 13 groups, consisting of 10 hamsters, respectively. […] The hamsters (10 heads) in the remaining one group were intraperitoneally administered from their age of 3- to 10-weeks with a sterilized 10% maltose solution (pyrogen-free) in an amount of 0.5 ml/hamster (control) once a day for 56 days At the next day after the end of the administration, body weight of each hamster was weighed, followed by performing rotarod test, slope endurance test, and counting of falling down frequency. The types of compounds applied to each group and the results are in Table 25.
# [2] = tested on: hamsters with cerebellar ataxia; assay: Falling down frequency of hamsters with cerebellar ataxia; format: in vivo, hamster; conditions: for Falling down frequency (frequency/min): cerebellar ataxia hamsters, 10-weeks of age
# Description: as §1
# Hamsters, 10-weeks of age, were respectively housed in a breeding cage. Their falling down frequencies within one minute were counted under a macroscopic observation and the data from five heads in each group were averaged. For reference, the hamsters with cerebellar A used in this experiment are known to increase their falling down frequencies after nine weeks of age.
# as §2
# [3] = tested on: PC12-HS cells; assay: Evaluation A: neurocyte (cell)-growth-promoting action, ALAMAR BLUE; format: cell-based, rat; conditions: for Cell survival percentage (%): cell-growth promotion
# [4] = tested on: PC12-HS cells; assay: Evaluation B: neurite-outgrowth action in presence of NGF; format: cell-based, rat
# [5] = hamster with cerebellar ataxia, agent of Example 1, 0.5 ml/hamster intraperitoneally once a day for 56 days
smiles,measurement,setting,value
CCN1C=CC(=CC=C(C=Cc2cc[n+](CC)c3ccccc23)c2cc[n+](CC)c3ccccc23)c2ccccc21.[I-].[I-] [NK-4],endurable-slant-slope-angle (degree),"[1]; 20 μg/kg body weight i.p. once a day, 5-Weeks",47.2 ± 0.4 degree
same,endurable-slant-slope-angle (degree),"[1]; 20 μg/kg body weight i.p. once a day, 6-Weeks",44.6 ± 0.5 degree
same,endurable-slant-slope-angle (degree),"[1]; 20 μg/kg body weight i.p. once a day, 7-Weeks",47.0 ± 0.3 degree
same,endurable-slant-slope-angle (degree),"[1]; 20 μg/kg body weight i.p. once a day, 8-Weeks",42.8 ± 0.5 degree
same,endurable-slant-slope-angle (degree),"[1]; 20 μg/kg body weight i.p. once a day, 9-Weeks",44.4 ± 0.5 degree
same,endurable-slant-slope-angle (degree),"[1]; 20 μg/kg body weight i.p. once a day, 10-Weeks",45.8 ± 0.6 degree
same,endurable-slant-slope-angle (degree),"[1]; 100 μg/kg body weight i.p. once a day, 4-Weeks",41.6 ± 0.4 degree
same,endurable-slant-slope-angle (degree),"[1]; 100 μg/kg body weight i.p. once a day, 5-Weeks",45.6 ± 0.2 degree
same,endurable-slant-slope-angle (degree),"[1]; 100 μg/kg body weight i.p. once a day, 6-Weeks",44.4 ± 0.3 degree
same,endurable-slant-slope-angle (degree),"[1]; 100 μg/kg body weight i.p. once a day, 7-Weeks",46.2 ± 0.4 degree
same,endurable-slant-slope-angle (degree),"[1]; 100 μg/kg body weight i.p. once a day, 8-Weeks",47.6 ± 0.4 degree
same,endurable-slant-slope-angle (degree),"[1]; 100 μg/kg body weight i.p. once a day, 9-Weeks",46.8 ± 0.3 degree
same,endurable-slant-slope-angle (degree),"[1]; 100 μg/kg body weight i.p. once a day, 10-Weeks",51.6 ± 0.6 degree
same,endurable-slant-slope-angle (degree),"[1]; 500 μg/kg body weight i.p. once a day, 4-Weeks",43.8 ± 0.4 degree
same,endurable-slant-slope-angle (degree),"[1]; 500 μg/kg body weight i.p. once a day, 5-Weeks",46.4 ± 0.2 degree
same,endurable-slant-slope-angle (degree),"[1]; 500 μg/kg body weight i.p. once a day, 6-Weeks",44.0 ± 0.6 degree
same,endurable-slant-slope-angle (degree),"[1]; 500 μg/kg body weight i.p. once a day, 7-Weeks",44.6 ± 0.5 degree
same,endurable-slant-slope-angle (degree),"[1]; 500 μg/kg body weight i.p. once a day, 8-Weeks",48.0 ± 0.5 degree
same,endurable-slant-slope-angle (degree),"[1]; 500 μg/kg body weight i.p. once a day, 9-Weeks",47.5 ± 0.4 degree
same,endurable-slant-slope-angle (degree),"[1]; 500 μg/kg body weight i.p. once a day, 10-Weeks",51.8 ± 0.4 degree
same,Endurable-slant-slope-angle (°),[1]; [5],55.8 ± 2.5 °
same,Falling down frequency (frequency/min),[2]; 20 μg/kg body weight i.p. once a day,4.0 ± 1.0 frequency/min
same,Falling down frequency (frequency/min),[2]; 100 μg/kg body weight i.p. once a day,1.6 ± 0.9 frequency/min
same,Falling down frequency (frequency/min),[2]; 500 μg/kg body weight i.p. once a day,1.2 ± 0.8 frequency/min
same,Falling down frequency (count/min),[2]; [5],1.1 ± 0.8 count/min
same,Cell survival percentage (%),[3]; final concentration 50 ng/ml,154 ± 8%
same,Cell survival percentage (%),[3]; final concentration 200 ng/ml,309 ± 68%
same,Cell survival percentage (%),[3]; final concentration 800 ng/ml,254 ± 54%
same,Cell survival percentage (%),"[3]; no compound = 100%, final concentration 12.5 ng/ml",134 ± 8%
same,Action of enhancing cell growth (%),[3]; compound concentration 25 ng/ml,149 ± 20%
same,Action of enhancing cell growth (%),[3]; compound concentration 50 ng/ml,181 ± 79%
same,Action of enhancing cell growth (%),[3]; compound concentration 100 ng/ml,301 ± 65%
same,Action of enhancing cell growth (%),[3]; compound concentration 200 ng/ml,438 ± 48%
same,optimum concentration for exhibiting cell-growth-promoting action,[3]; from Table 9,200 ng/mL
same,Evaluation B: Neurite-outgrowth action,"[4]; 50 μl of 400 ng/ml test sample solution per well + NGF final 5 ng/ml, 3 days",∘ (The test sample with a neurite outgrowth rate of 30% or higher was judged to be equivalent or more (∘) compared with NK-4)
same,Action on neurite outgrowth (%),[4]; compound concentration 80 ng/ml,25 ± 9%
same,Action on neurite outgrowth (%),[4]; compound concentration 400 ng/ml,35 ± 9%
same,Action on neurite outgrowth (%),[4]; compound concentration 2000 ng/ml,52 ± 4%
same,Action on neurite outgrowth (%),[4]; compound concentration 10000 ng/ml,14 ± 6%
same,Rate of cells exhibiting neurite outgrowth (%),[4]; final concentration of compound 200 ng/ml,22 ± 8%
same,Rate of cells exhibiting neurite outgrowth (%),[4]; final concentration of compound 400 ng/ml,31 ± 14%
same,Rate of cells exhibiting neurite outgrowth (%),[4]; final concentration of compound 800 ng/ml,51 ± 3%
same,Rate of cells exhibiting neurite outgrowth (%),[4]; final concentration of compound 1600 ng/ml,49 ± 8%

# Source: US20120035187A1 (priority 2009, published 2012)
